The target in one series is Histone deacetylase 1 (Homo sapiens, UniProt Q13547). The series is described as follows: Inhibition of HDAC1 (unknown origin) using p53 (379 to 382 residues) (RHKK(Ac-AMC) as fluorogenic substrate incubated for 1 hrs by fluorescence based assay.
For series [1], the system named is HCT-116. Put plainly: Antiproliferative activity against human HCT-116 cells assessed as cell viability at 1 uM incubated for 72 hrs by luminescence assay. In kind it is functional, cell-based. Particulars: for viability at 1 µM: HCT-116, dose 1 µM, time 72 hrs, read-out: Activity; for IC50: HCT-116, 72 h.
The nature of series [2]: Binding affinity to SNAI1 (unknown origin) assessed as dissociation constant. Further details: species or system Homo sapiens.
Series [3] relates to HCT-116. The series is described as follows: Antiproliferative activity against human HCT-116 cells assessed as reduction in cell viability incubated for 72 hrs by luminescence assay. The following applies: HCT-116, 72 h. In kind it is functional, cell-based.
Series [4] is described as follows: Metabolic stability in human liver microsomes assessed as half life incubated for 10 mins by LC-MS/MS analysis. In kind it is ADME, Microsome.
Series [5] is described as follows: Metabolic stability in monkey liver microsomes assessed as half life incubated for 10 mins by LC-MS/MS analysis. The format is ADME, Macaca mulatta, Microsome. Particulars: rhesus monkey.
The nature of series [6]: Metabolic stability in dog liver microsomes assessed as half life incubated for 10 mins by LC-MS/MS analysis. In kind it is ADME, Canis lupus familiaris, Microsome. On the technique in general: Microsomes from liver hold many membrane-bound enzymes, among them those of drug oxidation.
Series [7] is described as follows: Metabolic stability in rat liver microsomes assessed as half life incubated for 10 mins by LC-MS/MS analysis. The format is ADME, Microsome.
A short description of series [8]: Metabolic stability in human liver microsomes assessed as intrinsic clearance incubated for 10 mins by LC-MS/MS analysis. The format is ADME, Microsome. Particulars: read-out: CLH.
Series [9] is described as follows: Metabolic stability in monkey liver microsomes assessed as intrinsic clearance incubated for 10 mins by LC-MS/MS analysis. In kind it is ADME, Macaca mulatta, Microsome. Particulars: rhesus monkey, read-out: CLH.
Series [10] in a line: Metabolic stability in dog liver microsomes assessed as intrinsic clearance incubated for 10 mins by LC-MS/MS analysis. The format is ADME, Canis lupus familiaris, Microsome. The following applies: read-out: CLH.
Series [11] can be described thus: Metabolic stability in rat liver microsomes assessed as intrinsic clearance incubated for 10 mins by LC-MS/MS analysis. In kind it is ADME, Microsome. Particulars: read-out: CLH.
Series [12] in a line: Metabolic stability in dog plasma assessed as half life at 100 uM measured upto 120 mins by LC-MS/MS analysis. The format is ADME, cell-free, Canis lupus familiaris.
A short description of series [13]: Metabolic stability in rat plasma assessed as half life at 100 uM measured upto 120 mins by LC-MS/MS analysis. In kind it is ADME, cell-free.
A short description of series [14]: Metabolic stability in human plasma assessed as parent compound remaining at 100 uM measured after 2 hrs by LC-MS/MS analysis. The format is ADME, cell-free. Particulars: read-out: Stability.
Series [15] in a line: Metabolic stability in monkey plasma assessed as parent compound remaining at 100 uM measured after 2 hrs by LC-MS/MS analysis. In kind it is ADME, cell-free, Macaca mulatta. Particulars: rhesus monkey, read-out: Stability.
A short description of series [16]: Metabolic stability in dog plasma assessed as parent compound remaining at 100 uM measured after 2 hrs by LC-MS/MS analysis. Particulars: read-out: Stability. The format is ADME, cell-free, Canis lupus familiaris.
Series [17] is described as follows: Metabolic stability in rat plasma assessed as parent compound remaining at 100 uM measured after 2 hrs by LC-MS/MS analysis. In kind it is ADME, cell-free. Particulars: read-out: Stability.

The IC50 is the concentration that gives 50% inhibition. One may read the Kd as the concentration at which binding is half-saturated. The term half-life denotes how long it takes for the measured level to halve.

Histone deacetylase 1, sequence (Q13547 whole entry, the tested form may be a part): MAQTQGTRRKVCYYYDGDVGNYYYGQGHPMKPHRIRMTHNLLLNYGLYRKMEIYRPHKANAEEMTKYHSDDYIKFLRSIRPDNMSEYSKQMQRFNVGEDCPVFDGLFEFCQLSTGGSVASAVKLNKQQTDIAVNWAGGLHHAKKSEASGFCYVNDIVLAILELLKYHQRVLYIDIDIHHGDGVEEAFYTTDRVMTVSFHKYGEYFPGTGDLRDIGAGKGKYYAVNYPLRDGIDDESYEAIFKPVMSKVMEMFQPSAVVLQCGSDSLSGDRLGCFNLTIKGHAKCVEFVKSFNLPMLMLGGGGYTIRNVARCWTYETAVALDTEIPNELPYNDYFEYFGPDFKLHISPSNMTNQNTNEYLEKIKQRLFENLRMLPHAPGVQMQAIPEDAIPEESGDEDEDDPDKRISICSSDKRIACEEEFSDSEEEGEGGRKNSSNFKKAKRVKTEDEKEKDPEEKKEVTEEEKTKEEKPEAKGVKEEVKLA

At Histone deacetylase 1, `Nc1ccccc1NC(=O)c1ccc(CSc2nc(NCc3ccc(C(F)(F)F)cc3)c3cccn3n2)cc1` came in with an IC50 of 1.73 µM. For the same molecule, in the series with HCT-116 [1], the viability at 1 µM came out at 102%.
For the molecule `Nc1ccccc1NC(=O)c1ccc(CSc2nc(N3CCOCC3)c3cccn3n2)cc1`, the IC50 amounted to 0.204 µM against Histone deacetylase 1 and 1.09 µM in the series with HCT-116 [1]. For the same molecule, the Kd in [2] was 0.905 µM.
In the case of `CC(C)(C)OC(=O)N1CCC(Nc2nc(SCc3ccc(C(=O)Nc4ccc(F)cc4N)cc3)nn3cccc23)CC1`, at Histone deacetylase 1, the IC50 came to 4.5 µM. Moreover, the viability at 1 µM in the series with HCT-116 [1] amounted to 105%.
Consider `COc1ccc(CNc2nc(SCc3ccc(C(=O)Nc4ccc(F)cc4N)cc3)nn3cccc23)cc1`, for which the IC50 on Histone deacetylase 1 turned out to be 5.04 µM; in the series on HCT-116 [1], 0.997 µM. The equilibrium dissociation constant (Kd) in series [2] came out at 0.514 µM.
Take `Nc1cc(F)ccc1NC(=O)c1ccc(CSc2nc(NCc3ccc(F)cc3)c3cccn3n2)cc1`: the half-maximal inhibitory concentration (IC50) at Histone deacetylase 1 was greater than 10 µM. Also, in the series on HCT-116 [1], the viability at 1 µM stood at 89.3%.
`Nc1cc(F)ccc1NC(=O)c1ccc(CSc2nc(NC3CCNCC3)c3cccn3n2)cc1`: on Histone deacetylase 1, the IC50 turned out to be 2.37 µM. For the same molecule, the viability at 1 µM with HCT-116 [1] came out at 95.8%.
Consider `CC(C)(C)OC(=O)N1CCC(Nc2nc(SCc3ccc(C(=O)Nc4ccccc4N)cc3)nn3cccc23)CC1`, for which it took 0.871 µM to reach half-maximal inhibition on Histone deacetylase 1 (IC50). The viability at 1 µM with HCT-116 [1] turned out to be 103%.
At Histone deacetylase 1, `Nc1ccccc1NC(=O)c1ccc(CSc2nc(NCc3ccc(F)cc3)c3cccn3n2)cc1` yielded an IC50 of 0.481 µM. In addition, the viability at 1 µM with HCT-116 [1] was found to be 83.1%.
Turning to `Nc1ccccc1NC(=O)c1ccc(CSc2nc(Nc3cc[nH]n3)c3cccn3n2)cc1`, the IC50 against Histone deacetylase 1 was determined as 0.148 µM; in the series with HCT-116 [3] it was 1.55 µM. Also, the viability at 1 µM with HCT-116 [1] amounted to 60.3%. Further, the Kd in [2] was 0.984 µM.
`Nc1ccccc1NC(=O)c1ccc(CSc2nc(NC3CCNCC3)c3cccn3n2)cc1` displayed an IC50 on Histone deacetylase 1 of 0.493 µM. Moreover, in the series with HCT-116 [1], the viability at 1 µM was found to be 78.5%.
In the case of `COc1ccc(CNc2nc(SCc3ccc(C(=O)Nc4ccccc4N)cc3)nn3cccc23)cc1`, the IC50 against Histone deacetylase 1 was 0.392 µM; in the series with HCT-116 [1] it was 0.292 µM. Further, in series [2], the Kd came out at 0.356 µM.
With `Nc1cc(F)ccc1NC(=O)c1ccc(CSc2nc(Nc3cc[nH]n3)c3cccn3n2)cc1`, the IC50 on Histone deacetylase 1 was determined as 0.595 µM; with HCT-116 [1], 0.731 µM. The Kd in [2] was 0.426 µM.
With `Cc1cc(Nc2nc(SCc3ccc(C(=O)Nc4ccccc4N)cc3)nn3cccc23)n[nH]1`, the IC50 against Histone deacetylase 1 was 0.152 µM; with HCT-116 [1], 0.959 µM. The dissociation constant Kd in [2] is 0.562 µM.
In the case of `Nc1cc(F)ccc1NC(=O)c1ccc(CNC(=O)/C=C/c2cccnc2)cc1` [TUCIDINOSTAT], in the series on HCT-116 [1], the IC50 was 2.08 µM. Moreover, the Kd in series [2] was greater than 10 µM. For the same molecule, the half-life in series [4] was determined as 6.27 h; in series [5] it was 2.05 h; in [6] it was 8.37 h; in series [7] it was 3.17 h. In addition, the microsomal CLint in [8] came to 4.18 µL/min/mg; in series [9], 11.2 µL/min/mg; in series [10], 2.76 µL/min/mg; in [11], 7.35 µL/min/mg. Besides, the half-life at 100 µM in series [12] was found to be 16.3 h; in series [13], 8.83 h. The remaining at 2 h, 100 µM in series [14] was 109%; in [15] it was 102%; in series [16] it was 103%; in series [17], 82.1%.
Turning to `CC(C)(C)c1cc(Nc2nc(SCc3ccc(C(=O)Nc4ccc(F)cc4N)cc3)nn3cccc23)n[nH]1`, the IC50 against Histone deacetylase 1 stood at 1.54 µM. Moreover, in the series with HCT-116 [1], the viability at 1 µM was found to be 108%.
As to `COc1ccc(CNc2nc(SCc3ccc(C(=O)Nc4ccc(F)cc4N)cc3)nn3cccc23)c(OC)c1`, at Histone deacetylase 1, the IC50 was greater than 10 µM. In the series with HCT-116 [1], the viability at 1 µM came to 92.5%.
As for `Nc1cc(F)ccc1NC(=O)c1ccc(CSc2nc(N3CCOCC3)c3cccn3n2)cc1`, the IC50 at Histone deacetylase 1 was 2.31 µM; with HCT-116 [1], 0.948 µM. Moreover, in series [2], the Kd was found to be 0.754 µM.
As to `COc1ccc(CNc2nc(SCc3ccc(C(=O)Nc4ccccc4N)cc3)nn3cccc23)c(OC)c1`, at Histone deacetylase 1, the IC50 was found to be 0.336 µM. Further, in the series on HCT-116 [1], the viability at 1 µM came to 92.5%.
For `Cc1cccnc1Nc1nc(SCc2ccc(C(=O)Nc3ccccc3N)cc2)nn2cccc12`, the IC50 on Histone deacetylase 1 was determined as 0.204 µM; in the series with HCT-116 [1] it was 1.37 µM. Besides, the equilibrium dissociation constant (Kd) in series [2] turned out to be 0.945 µM.
`Nc1cc(F)ccc1NC(=O)c1ccc(CSc2nc(NCc3ccc(C(F)(F)F)cc3)c3cccn3n2)cc1`: the IC50 against Histone deacetylase 1 is greater than 10 µM. For the same molecule, in the series with HCT-116 [1], the viability at 1 µM worked out at 107%.
The like results for `COc1ccc(CNc2nc(SCc3ccc(C(=O)Nc4ccc(F)cc4N)cc3)nn3cccc23)cc1OC` were, in that order, 8.16 µM and 73.9%.
As to `Cc1cccnc1Nc1nc(SCc2ccc(C(=O)Nc3ccc(F)cc3N)cc2)nn2cccc12`, the IC50 came to 1.32 µM against Histone deacetylase 1 and 0.857 µM in the series with HCT-116 [1]. Besides, the Kd in series [2] stood at 0.875 µM.
`COc1ccc(CNc2nc(SCc3ccc(C(=O)Nc4ccccc4N)cc3)nn3cccc23)cc1OC` came in with an IC50 against Histone deacetylase 1 of 0.406 µM. In addition, in the series on HCT-116 [1], the viability at 1 µM is 73.9%.
`CC(C)(C)c1cc(Nc2nc(SCc3ccc(C(=O)Nc4ccccc4N)cc3)nn3cccc23)n[nH]1`: the IC50 against Histone deacetylase 1 came to 0.238 µM. In addition, in the series on HCT-116 [1], the viability at 1 µM is 96.1%.
